Source: PubChem BioAssay (NCI)
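Step 1: Grow cells in 96-well plates. Step 2: Expose to compound for 48 hours at 5 concentrations. Step 3: Interpolate endpoints linearly; if unreached, use highest concentration. TGI is the concentration that stops growth completely.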

Key:
Assay in all cases: NCI anticancer screen, dose series, 48 h
LXFL 529 NSCLC = test system: LXFL 529 NSCLC
SN12C renal = test system: SN12C renal
SK-OV-3 ovarian = test system: SK-OV-3 ovarian
SNB-19 CNS = test system: SNB-19 CNS
CAKI-1 renal = test system: CAKI-1 renal
SNB-78 CNS = test system: SNB-78 CNS
SK-MEL-5 melanoma = test system: SK-MEL-5 melanoma
ACHN renal = test system: ACHN renal
TK-10 renal = test system: TK-10 renal
KM20L2 colon = test system: KM20L2 colon
HCC-2998 colon = test system: HCC-2998 colon
DLD-1 colon = test system: DLD-1 colon
KM12 colon = test system: KM12 colon
HT29 colon = test system: HT29 colon
EKVX NSCLC = test system: EKVX NSCLC
NCI-H23 lung = test system: NCI-H23 lung
786-0 renal = test system: 786-0 renal
U251 CNS = test system: U251 CNS
HCT-116 colon = test system: HCT-116 colon
COLO 205 colon = test system: COLO 205 colon
UACC-257 melanoma = test system: UACC-257 melanoma
DMS 273 small cell lung = test system: DMS 273 small cell lung
HOP-92 NSCLC = test system: HOP-92 NSCLC
SF-539 CNS = test system: SF-539 CNS
LOX IMVI melanoma = test system: LOX IMVI melanoma
SW-620 colon = test system: SW-620 colon
SF-295 CNS = test system: SF-295 CNS
UO-31 renal = test system: UO-31 renal
SK-MEL-28 melanoma = test system: SK-MEL-28 melanoma
A549 NSCLC = test system: A549 NSCLC
OVCAR-8 ovarian = test system: OVCAR-8 ovarian
SF-268 CNS = test system: SF-268 CNS
NCI-H460 lung = test system: NCI-H460 lung
HOP-62 NSCLC = test system: HOP-62 NSCLC
HCT-15 colon = test system: HCT-15 colon
IGROV1 ovarian = test system: IGROV1 ovarian
OVCAR-3 ovarian = test system: OVCAR-3 ovarian
OVCAR-4 ovarian = test system: OVCAR-4 ovarian
M19-MEL melanoma = test system: M19-MEL melanoma
SK-MEL-2 melanoma = test system: SK-MEL-2 melanoma
UACC-62 melanoma = test system: UACC-62 melanoma
M14 melanoma = test system: M14 melanoma
NCI-H522 lung = test system: NCI-H522 lung
MDA-MB-231 breast = test system: MDA-MB-231 breast
DU-145 prostate = test system: DU-145 prostate
PC-3 prostate = test system: PC-3 prostate
T-47D breast = test system: T-47D breast
RXF 393 renal = test system: RXF 393 renal
SNB-75 CNS = test system: SNB-75 CNS
K-562 leukemia = test system: K-562 leukemia
MCF7 breast = test system: MCF7 breast
SR leukemia = test system: SR leukemia
MALME-3M melanoma = test system: MALME-3M melanoma
RPMI-8226 leukemia = test system: RPMI-8226 leukemia
HL-60(TB) leukemia = test system: HL-60(TB) leukemia
MDA-MB-435 = test system: MDA-MB-435
HS 578T breast = test system: HS 578T breast
CCRF-CEM leukemia = test system: CCRF-CEM leukemia
OVCAR-5 ovarian = test system: OVCAR-5 ovarian
MOLT-4 leukemia = test system: MOLT-4 leukemia
MDA-N = test system: MDA-N
A498 renal = test system: A498 renal
BT-549 breast = test system: BT-549 breast
NCI-H226 lung = test system: NCI-H226 lung
NCI/ADR-RES ovarian = test system: NCI/ADR-RES ovarian

For `CN(Cc1ccccc1)C(=NC#N)N(C)Cc1ccccc1`, the TGI (LXFL 529 NSCLC) was > 100 µM, the TGI (SN12C renal) was > 100 µM and the TGI (SK-OV-3 ovarian) was > 100 µM. The TGI (SNB-19 CNS) was > 100 µM, the TGI (CAKI-1 renal) was > 100 µM and the TGI (SNB-78 CNS) was > 100 µM. For the same molecule, the TGI (SK-MEL-5 melanoma) was > 100 µM, the TGI (ACHN renal) was > 100 µM and the TGI (TK-10 renal) was > 100 µM. The TGI (KM20L2 colon) was > 100 µM, the TGI (HCC-2998 colon) was > 100 µM and the TGI (DLD-1 colon) was > 100 µM. The TGI (KM12 colon) was > 100 µM, the TGI (HT29 colon) was > 100 µM and the TGI (EKVX NSCLC) was > 100 µM. For the same molecule, the TGI (NCI-H23 lung) was > 100 µM, the TGI (786-0 renal) was > 100 µM and the TGI (U251 CNS) was > 100 µM. The TGI (HCT-116 colon) was > 100 µM, the TGI (COLO 205 colon) was > 100 µM and the TGI (UACC-257 melanoma) was > 100 µM. The TGI (DMS 273 small cell lung) was > 100 µM, the TGI (HOP-92 NSCLC) was > 100 µM and the TGI (SF-539 CNS) was > 100 µM. For the same molecule, the TGI (LOX IMVI melanoma) was > 100 µM, the TGI (SW-620 colon) was > 100 µM and the TGI (SF-295 CNS) was > 100 µM. For the same molecule, the TGI (UO-31 renal) was > 100 µM, the TGI (SK-MEL-28 melanoma) was > 100 µM and the TGI (A549 NSCLC) was > 100 µM. The TGI (OVCAR-8 ovarian) was > 100 µM, the TGI (SF-268 CNS) was > 100 µM and the TGI (NCI-H460 lung) was > 100 µM. The TGI (HOP-62 NSCLC) was > 100 µM, the TGI (HCT-15 colon) was > 100 µM and the TGI (IGROV1 ovarian) was > 100 µM. For the same molecule, the TGI (OVCAR-3 ovarian) was > 100 µM, the TGI (OVCAR-4 ovarian) was > 100 µM and the TGI (M19-MEL melanoma) was > 100 µM. For the same molecule, the TGI (SK-MEL-2 melanoma) was > 100 µM, the TGI (UACC-62 melanoma) was > 100 µM and the TGI (M14 melanoma) was > 100 µM. The TGI (NCI-H522 lung) was > 100 µM.

For `O=c1[nH]cnc2c1ncn2[C@@H]1C[C@H]1CO`, the TGI (MDA-MB-231 breast) was > 100 µM, the TGI (DU-145 prostate) was > 100 µM and the TGI (SN12C renal) was > 100 µM. For the same molecule, the TGI (PC-3 prostate) was > 100 µM, the TGI (T-47D breast) was > 100 µM and the TGI (SNB-19 CNS) was > 100 µM. For the same molecule, the TGI (RXF 393 renal) was > 100 µM, the TGI (CAKI-1 renal) was > 100 µM and the TGI (SNB-75 CNS) was > 100 µM. For the same molecule, the TGI (K-562 leukemia) was > 100 µM, the TGI (SK-MEL-5 melanoma) was > 100 µM and the TGI (MCF7 breast) was > 100 µM. For the same molecule, the TGI (ACHN renal) was > 100 µM, the TGI (TK-10 renal) was > 100 µM and the TGI (SR leukemia) was > 100 µM. For the same molecule, the TGI (HCC-2998 colon) was > 100 µM, the TGI (KM12 colon) was > 100 µM and the TGI (HT29 colon) was > 100 µM. For the same molecule, the TGI (EKVX NSCLC) was > 100 µM, the TGI (NCI-H23 lung) was > 100 µM and the TGI (MALME-3M melanoma) was > 100 µM. The TGI (786-0 renal) was > 100 µM, the TGI (U251 CNS) was > 100 µM and the TGI (HCT-116 colon) was > 100 µM. For the same molecule, the TGI (COLO 205 colon) was > 100 µM, the TGI (UACC-257 melanoma) was > 100 µM and the TGI (HOP-92 NSCLC) was > 100 µM. For the same molecule, the TGI (SF-539 CNS) was > 100 µM, the TGI (LOX IMVI melanoma) was > 100 µM and the TGI (SW-620 colon) was > 100 µM. For the same molecule, the TGI (RPMI-8226 leukemia) was > 100 µM, the TGI (UO-31 renal) was > 100 µM and the TGI (SK-MEL-28 melanoma) was > 100 µM. The TGI (A549 NSCLC) was > 100 µM, the TGI (HL-60(TB) leukemia) was > 100 µM and the TGI (MDA-MB-435) was > 100 µM. The TGI (OVCAR-8 ovarian) was > 100 µM, the TGI (SF-268 CNS) was > 100 µM and the TGI (NCI-H460 lung) was > 100 µM. The TGI (HS 578T breast) was > 100 µM, the TGI (CCRF-CEM leukemia) was > 100 µM and the TGI (HOP-62 NSCLC) was > 100 µM. The TGI (HCT-15 colon) was > 100 µM, the TGI (IGROV1 ovarian) was > 100 µM and the TGI (OVCAR-5 ovarian) was > 100 µM. The TGI (MOLT-4 leukemia) was > 100 µM, the TGI (OVCAR-4 ovarian) was > 100 µM and the TGI (MDA-N) was > 100 µM. The TGI (SK-MEL-2 melanoma) was > 100 µM, the TGI (UACC-62 melanoma) was > 100 µM and the TGI (A498 renal) was > 100 µM. For the same molecule, the TGI (M14 melanoma) was > 100 µM, the TGI (BT-549 breast) was > 100 µM and the TGI (NCI-H226 lung) was > 100 µM. For the same molecule, the TGI (NCI/ADR-RES ovarian) was > 100 µM and the TGI (NCI-H522 lung) was > 100 µM.

With `Cc1ccc(NC2=N/C(=C/c3ccccc3)C(Cl)=N2)cc1` the TGI (MDA-MB-231 breast) was > 100 µM, the TGI (DU-145 prostate) was > 100 µM and the TGI (SN12C renal) was > 100 µM. For the same molecule, the TGI (PC-3 prostate) was > 100 µM, the TGI (SK-OV-3 ovarian) was > 100 µM and the TGI (T-47D breast) was > 100 µM. The TGI (SNB-19 CNS) was > 100 µM, the TGI (RXF 393 renal) was > 100 µM and the TGI (CAKI-1 renal) was > 100 µM. For the same molecule, the TGI (SNB-75 CNS) was > 100 µM, the TGI (K-562 leukemia) was > 100 µM and the TGI (SK-MEL-5 melanoma) was > 100 µM. For the same molecule, the TGI (MCF7 breast) was > 100 µM, the TGI (ACHN renal) was > 100 µM and the TGI (TK-10 renal) was > 100 µM. For the same molecule, the TGI (SR leukemia) was 98.2 µM, the TGI (HCC-2998 colon) was > 100 µM and the TGI (KM12 colon) was > 100 µM. For the same molecule, the TGI (HT29 colon) was > 100 µM, the TGI (EKVX NSCLC) was > 100 µM and the TGI (NCI-H23 lung) was > 100 µM. The TGI (MALME-3M melanoma) was > 100 µM, the TGI (786-0 renal) was > 100 µM and the TGI (U251 CNS) was > 100 µM. The TGI (HCT-116 colon) was > 100 µM, the TGI (COLO 205 colon) was > 100 µM and the TGI (UACC-257 melanoma) was > 100 µM. The TGI (HOP-92 NSCLC) was > 100 µM, the TGI (SF-539 CNS) was > 100 µM and the TGI (LOX IMVI melanoma) was > 100 µM. For the same molecule, the TGI (SW-620 colon) was > 100 µM, the TGI (SF-295 CNS) was > 100 µM and the TGI (RPMI-8226 leukemia) was > 100 µM. The TGI (UO-31 renal) was > 100 µM, the TGI (SK-MEL-28 melanoma) was > 100 µM and the TGI (A549 NSCLC) was > 100 µM. The TGI (HL-60(TB) leukemia) was > 63.3 µM, the TGI (MDA-MB-435) was > 100 µM and the TGI (OVCAR-8 ovarian) was > 100 µM. For the same molecule, the TGI (SF-268 CNS) was > 100 µM, the TGI (NCI-H460 lung) was > 100 µM and the TGI (HS 578T breast) was > 100 µM. The TGI (CCRF-CEM leukemia) was > 100 µM, the TGI (HOP-62 NSCLC) was > 100 µM and the TGI (HCT-15 colon) was > 100 µM. For the same molecule, the TGI (IGROV1 ovarian) was > 100 µM, the TGI (OVCAR-3 ovarian) was > 100 µM and the TGI (OVCAR-5 ovarian) was > 100 µM. For the same molecule, the TGI (MOLT-4 leukemia) was > 100 µM, the TGI (OVCAR-4 ovarian) was > 100 µM and the TGI (MDA-N) was > 100 µM. The TGI (SK-MEL-2 melanoma) was > 100 µM, the TGI (UACC-62 melanoma) was > 100 µM and the TGI (A498 renal) was > 100 µM. The TGI (M14 melanoma) was > 100 µM, the TGI (BT-549 breast) was > 100 µM and the TGI (NCI-H226 lung) was > 100 µM. For the same molecule, the TGI (NCI/ADR-RES ovarian) was > 100 µM and the TGI (NCI-H522 lung) was > 100 µM.
